Among the data in patent publication US20120214847A1, “2-[1-PHENYL-5-HYDROXY-4a-SUBSTITUTED-HEXAHYDROCYCLOPENTA[F]INDAZOL-5-YL]ETHYL PHENYL DERIVATIVES AS GLUCOCORTICOID RECEPTOR LIGANDS” (Merck Sharp & Dohme Corp., priority 2009, published 2012) are Ki values, retold here.

For this test, the target named is T1, glucocorticoid receptor (Homo sapiens, UniProt P04150).
T1 construct: endogenous in cells; host or cells: HeLa (ATCC) cell lysate supernatant
T1 sequence (P04150 1-777): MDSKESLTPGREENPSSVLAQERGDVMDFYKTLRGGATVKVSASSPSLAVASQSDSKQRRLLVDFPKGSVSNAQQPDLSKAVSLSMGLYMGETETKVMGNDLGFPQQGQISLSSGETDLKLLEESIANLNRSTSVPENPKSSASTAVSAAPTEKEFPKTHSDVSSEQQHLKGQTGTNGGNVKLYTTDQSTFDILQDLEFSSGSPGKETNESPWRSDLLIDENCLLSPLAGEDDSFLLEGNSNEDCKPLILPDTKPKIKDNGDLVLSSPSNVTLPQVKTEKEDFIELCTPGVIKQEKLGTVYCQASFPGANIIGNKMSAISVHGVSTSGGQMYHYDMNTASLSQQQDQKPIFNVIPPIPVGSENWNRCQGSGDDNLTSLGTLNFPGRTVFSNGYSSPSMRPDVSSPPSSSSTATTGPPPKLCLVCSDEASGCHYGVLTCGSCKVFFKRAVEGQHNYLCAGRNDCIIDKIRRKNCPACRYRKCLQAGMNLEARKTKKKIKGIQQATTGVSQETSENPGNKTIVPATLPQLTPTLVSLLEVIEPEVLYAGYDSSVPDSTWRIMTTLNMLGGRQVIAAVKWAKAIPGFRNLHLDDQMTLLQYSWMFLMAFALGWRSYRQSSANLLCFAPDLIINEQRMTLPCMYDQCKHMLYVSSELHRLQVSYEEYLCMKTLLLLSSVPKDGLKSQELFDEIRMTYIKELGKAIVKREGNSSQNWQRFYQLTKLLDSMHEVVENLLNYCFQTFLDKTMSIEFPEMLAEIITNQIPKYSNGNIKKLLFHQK
Kind of test: Ligand binding assay (GRBind), 3H-dexamethasone displacement in HeLa cell lysate. The following applies: 3H-DEX tracer. The method, boiled down:
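Cytosolic supernatant from HeLa cells in TEGM buffer (pH 7.2, with molybdate) was incubated overnight at 4 °C with 3H-dexamethasone (6 nM trace solution) and serially diluted compound, with 2% ethanol. Bound receptor was captured on hydroxylapatite, filtered and counted by scintillation. IC50s were calculated using dexamethasone as reference.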

Broadly, the Ki is the equilibrium dissociation constant of an inhibitor or competing ligand from its target. Low readings indicate higher affinity, high ones lower affinity.

Molecule `NC(=O)c1c(C2CC2)ccnc1CC[C@]1(O)CCC2=Cc3c(cnn3-c3ccc(F)cc3)C[C@@]21C1CC1` [Example 49, 4-Cyclopropyl-2-{2-[(4aR,5R)-4a-cyclopropyl-1-(4-fluorophenyl)-5-hydroxy-1,4,4a,5,6,7-hexahydrocyclopenta[f]indazol-5-yl]ethyl}pyridine-3-carboxamide] gave a Ki of 2.7 nM.
In the case of `CC[C@]12Cc3cnn(-c4ccc(F)cc4)c3C=C1CC[C@@]2(O)CC(O)c1ccc(F)cn1` (single isomer, unassigned) [Example 69a] it was 4.41 nM; in that of `OC(C[C@]1(O)CCC2=Cc3c(cnn3-c3ccc(F)cc3)C[C@@]21C1CC1)c1ccc(F)cn1` (single isomer, unassigned) [Example 79a], 2.83 nM; in that of `NC(=O)c1cccnc1CC[C@]1(O)CCC2=Cc3c(cnn3-c3ccc(F)cc3)C[C@@]21C1CC1` [Example 1, 2-{2-[(4aR,5R)-4a-Cyclopropyl-1-(4-fluorophenyl)-5-hydroxy-1,4,4a,5,6,7-hexahydrocyclopenta[f]indazol-5-yl]ethyl}pyridine-3-carboxamide], 4.51 nM.
In the case of `O[C@@]1(CCc2cc(C(F)(F)F)ccn2)CCC2=Cc3c(cnn3-c3ccc(F)cc3)C[C@@]21C1CC1` [Example 32, (4aR,5R)-4a-Cyclopropyl-1-(4-fluorophenyl)-5-{2-[4-(trifluoromethyl)pyridin-2-yl]ethyl}-1,4,4a,5,6,7-hexahydrocyclopenta[f]indazol-5-ol] it was 2.26 nM; in that of `CC[C@]12Cc3cnn(-c4ccc(F)cc4)c3C=C1CC[C@@]2(O)CCc1ccccc1C(O)C(N)=O` (stereo partly drawn) [Example 25, 2-(2-{2-[(4aS,5R)-4a-Ethyl-1-(4-fluorophenyl)-5-hydroxy-1,4,4a,5,6,7-hexahydrocyclopenta[f]indazol-5-yl]ethyl}phenyl)-2-hydroxyacetamide], 3.23 nM.
In the case of `Cc1ccnc(CC[C@]2(O)CCC3=Cc4c(cnn4-c4ccc(F)cc4)C[C@@]32C2CC2)c1` [Example 36, (4aR,5R)-4a-Cyclopropyl-1-(4-fluorophenyl)-5-[2-(4-methylpyridin-2-yl)ethyl]-1,4,4a,5,6,7-hexahydrocyclopenta[f]indazol-5-ol] it was 1.63 nM.
Take `NC(=O)c1cc(F)cnc1CC[C@]1(O)CCC2=Cc3c(cnn3-c3ccc(F)cc3)C[C@@]21C1CC1` [Example 4, 2-{2-[(4aR,5R)-4a-Cyclopropyl-1-(4-fluorophenyl)-5-hydroxy-1,4,4a,5,6,7-hexahydrocyclopenta[f]indazol-5-yl]ethyl}-5-fluoropyridine-3-carboxamide]: the Ki was found to be 1.98 nM.
With `CC[C@]12Cc3cnn(-c4ccc(F)cc4)c3C=C1CC[C@@]2(O)CC(O)c1ccccn1` (stereo partly drawn) [Example 68, (4aS,5R)-4a-Ethyl-1-(4-fluorophenyl)-5-[2-hydroxy-2-(pyridin-2-yl)ethyl]-1,4,4a,5,6,7-hexahydrocyclopenta[f]indazol-5-ol] the figure was 2.72 nM; with `N#Cc1ccnc(CC[C@]2(O)CCC3=Cc4c(cnn4-c4ccc(F)cc4)C[C@@]32C2CC2)c1` [Example 35, 2-{2-[(4aR,5R)-4a-Cyclopropyl-1-(4-fluorophenyl)-5-hydroxy-1,4,4a,5,6,7-hexahydrocyclopenta[f]indazol-5-yl]ethyl}pyridine-4-carbonitrile], 1.99 nM; with `CC[C@]12Cc3cnn(-c4ccc(F)cc4)c3C=C1CC[C@@]2(O)CCc1ncccc1C(N)=O` [Example 52, 2-{2-[(4aS,5R)-4a-Ethyl-1-(4-fluorophenyl)-5-hydroxy-1,4,4a,5,6,7-hexahydrocyclopenta[f]indazol-5-yl]ethyl}pyridine-3-carboxamide], 9.83 nM.
In the case of `CC[C@]12Cc3cnn(-c4ccc(F)cc4)c3C=C1CC[C@@]2(O)CCc1cncc(F)c1` [Example 21, (4aS,5R)-4a-Ethyl-1-(4-fluorophenyl)-5-[2-(5-fluoropyridin-3-yl)ethyl]-1,4,4a,5,6,7-hexahydrocyclopenta[f]indazol-5-ol] it was 1.04 nM.
On to `NC(=O)c1cc(F)ccc1CC[C@]1(O)CCC2=Cc3c(cnn3-c3ccc(F)cc3)C[C@@]21C1CC1` [Example 39, 2-{2-[(4aR,5R)-4a-Cyclopropyl-1-(4-fluorophenyl)-5-hydroxy-1,4,4a,5,6,7-hexahydrocyclopenta[f]indazol-5-yl]ethyl}-5-fluorobenzamide], for which affinity was put at a Ki of 1.98 nM.
With `CC[C@]12Cc3cnn(-c4cccc(F)c4)c3C=C1CC[C@@]2(O)CCc1cccc(F)c1C(N)=O` [Example 12, 2-{2-[(4aS,5R)-4a-Ethyl-1-(3-fluorophenyl)-5-hydroxy-1,4,4a,5,6,7-hexahydrocyclopenta[f]indazol-5-yl]ethyl}-6-fluorobenzamide] the figure was 1.85 nM; with `NS(=O)(=O)c1ccccc1CC[C@]1(O)CCC2=Cc3c(cnn3-c3cccnc3)C[C@@]21C1CC1` [Example 24, 2-{2-[(4aR,5R)-4a-Cyclopropyl-5-hydroxy-1-(pyridin-3-yl)-1,4,4a,5,6,7-hexahydrocyclopenta[f]indazol-5-yl]ethyl}benzenesulfonamide], 2.19 nM.
